Experimental data as given in patent US20080153886A1, “Use Of Heterocyclic Compounds As Neurogenic Agents” (NEUROPHARMA, S.A., priority 2005, published 2008).

Tested on: Neurospheres of the cerebral cortex and hippocampus of 2-day-old postnatal rats
Test: Neurosphere differentiation test (immunofluorescence with anti-GFAP / anti-MAP2 antibodies)
Format: cell-based, rat
Conditions: neurospheres grown 7 days in suspension with compound, 24 h on polylysine slides; versus basal (no compound); confocal images
Protocol: Neurospheres of the cerebral cortex and hippocampus of 2-day-old postnatal rats were grown in suspension culture for 7 days in the presence or absence of a formula (I) compound according to the invention, after which they were transferred to slides covered with polylysine and 24 h later (once adhered) immunofluorescence analyses were performed with anti-GFAP antibodies to view the astrocyte differentiation, or with anti-MAP2 to view neuronal differentiation. The images were captured on a TCS SP2 confocal microscope (Leica Microsystems).

Row | Structure (SMILES) | astrocyte differentiation of cells present in isolated neurospheres (anti-GFAP immunofluorescence) | neuronal differentiation of cells present in isolated neurospheres (anti-MAP2 immunofluorescence)
1 | O=c1sn(-c2cccc3ccccc23)c(=O)n1Cc1ccccc1 [compound [2], 4-benzyl-2-naphthalene-1-yl-[1,2,4]thiadiazolidine-3,5-dione] | induces | induces
2 | O=c1sn(C(c2ccccc2)c2ccccc2)c(=O)n1Cc1ccccc1 [compound [3], 2-Benzhydryl-4-benzyl-[1,2,4]thiadiazolidine-3,5-dione] | induces | induces
3 | O=c1sn(Cc2ccccc2)c(=O)n1Cc1ccccc1 [compound [1], 2,4-dibenzyl-[1,2,4]thiadiazolidine-3,5-dione] | induces | induces
4 | O=c1sn(-c2ccc(Oc3ccccc3)cc2)c(=O)n1Cc1ccccc1 [compound [4], 4-benzyl-2-(4-phenoxy-phenyl)-[1,2,4]thiadiazolidine-3,5-dione] | induces | induces
